# Assays:
# [1] = Solubility of bisacodyl in the co-existence of dioctyl sodium sulfosuccinate; format: physicochemical; settings: for solubility at 5 h: thermodynamic from solid
# Experimental: Variation in solubility of bisacodyl was studied in the co-existence of bisacodyl and dioctyl sodium sulfosuccinate. Bisacodyl was dispersed in purified water and the dispersion was shaken under given conditions for 5 hours. The resulting liquid was centrifuged at 3000 min^−1 for 5 min. Then, the supernatant was collected and the amount of dissolved bisacodyl was determined by HPLC. In a similar manner, bisacodyl was dispersed in solutions containing dioctyl sodium sulfosuccinate at 0.07%, 0.14% and 0.35%. Each dispersion was shaken and centrifuged at 3000 min^−1 for 5 min. Then, the supernatant was collected and the amount of dissolved bisacodyl was determined by HPLC.
# [2] = tested on: SD male rats; experiment: Intra-ileal administration test, onset of catharsis; format: in vivo, rat; settings: bisacodyl 2 mg/kg, DSS 3.2 mg/kg, observed 24 hours, FIG. 3
# Experimental: (§1) SD male rats were used in 10 animals per group. Test substances used were bisacodyl alone (2 mg/kg), DSS alone (3.2 mg/kg) and bisacodyl (2 mg/kg)+DSS (3.2 mg/kg).
# A rat underwent laparotomy under ether anesthesia and a test substance was injected via a syringe into an ileum at 20 cm to the mouth from the ileocecum at a dose of 1 mL/kg rat weight.
# [3] = tested on: SD male rats; experiment: Oral administration test, onset of catharsis; format: in vivo, rat; settings: bisacodyl 2 mg/kg, DSS 3.2 mg/kg, observed 24 hours, FIG. 3
# Experimental: as §1
"solubility at 5 h ([1]; 0.07% dioctyl sodium sulfosuccinate aqueous solution, aqueous with cosolvent or surfactant or cyclodextrin, Sample 1: 0.07% DSS aq.) [µg/mL]","solubility at 5 h ([1]; 0.14% dioctyl sodium sulfosuccinate aqueous solution, aqueous with cosolvent or surfactant or cyclodextrin, Sample 2: 0.14% DSS aq.) [µg/mL]","solubility at 5 h ([1]; 0.35% dioctyl sodium sulfosuccinate aqueous solution, aqueous with cosolvent or surfactant or cyclodextrin, Sample 3: 0.35% DSS aq.) [µg/mL]",Proportion to control (solubility of bisacodyl) ([1]; Sample 1: 0.07% DSS aq.) [%],Proportion to control (solubility of bisacodyl) ([1]; Sample 2: 0.14% DSS aq.) [%],Proportion to control (solubility of bisacodyl) ([1]; Sample 3: 0.35% DSS aq.) [%],"solubility at 5 h ([1]; Control: purified water, 0% DSS, shaken 5 hours) [µg/mL]",Structure (SMILES),Cathartic effect (catharsis incidence) [2],Cathartic effect (catharsis incidence) [3]
3.62,4.51,12.7,191.5,238.6,672.0,1.89,CC(=O)Oc1ccc(C(c2ccc(OC(C)=O)cc2)c2ccccn2)cc1 [Bisacodyl],–,–
–,–,–,–,–,–,–,"CCCCC(CC)COC(=O)CC(C(=O)OCC(CC)CCCC)S(=O)(=O)[O-].[Na+] (stereo not drawn) [DSS, Dioctyl sodium sulfosuccinate]",cathartic effect was not observed,cathartic effect was not observed

# From patent US20070196484A1, “Poorly water-soluble drug-containing solid formulation” (priority 2004, published 2007)
